In this test the test system is ankle joint swelling of rats caused by sodium urate crystals. As to the kind of experiment: Acute plantar/ankle joint swelling of rat caused by sodium urate crystals. In kind it is in vivo. The following applies: X ± SD, n = 9. Here is the method: A process of preparing sodium urate crystallization and a sodium urate solution is as follows: 2 g of uric acid are added into 400 mL of boiling water to obtain an uric acid solution; a pH value of the uric acid solution is adjusted to 7.4 by using NaOH (1N) to obtain an adjusted solution; the adjusted solution is heated to a temperature of 95° C. to obtain a heated solution; then the heated solution is cooled and stirred gently at a room temperature to obtain a cooled solution; the cooled solution is allowed to stand for 4-6 hours at 4° C. to precipitate flocculent precipitates; microcrystalline sodium urate is obtained by filtering, and the microcrystalline sodium urate is sterilized at a high temperature of 80° C. 1000 milligrams (mg) of the sodium urate are ground fully to obtain sodium urate powder, and the sodium urate powder is added into 20 mL of sterile physiological saline to prepare a suspension with a concentration of 50 g/L (5%).
A process of grouping and administration is as follows: rats are adaptively fed for 3 days and randomly divided into 7 groups based on body weights. The 7 groups include a model control group, a positive drug indomethacin group, a first group, a second group, and a third group, a first comparison group, and a second comparison group. One hour before inflammation, the positive drug indomethacin group is administered with indomethacin through gavage (10 mL/kg). The first group is immediately administered with the cold compress spray (0.1 mL for each rat) obtained in the embodiment 1 after modeling; the second group is immediately administered with the cold compress spray (0.1 mL for each rat) obtained in the embodiment 2 after modeling; the third group is immediately administered with the cold compress spray (0.1 mL for each rat) obtained in the embodiment 3 after modeling; the first comparison group is immediately administered with the cold compress spray (0.1 mL for each rat) obtained in the comparative embodiment 1 after modeling; the second comparison group is immediately administered with the cold compress spray (0.1 mL for each rat) obtained in the comparative embodiment 2 after modeling; and the model control group is immediately administered with an excipient (0.1 mL for each rat) after modeling. Furthermore, after inflammation, the first group, the second group, the third group, the first comparison group, and the second comparison group are administered with corresponding cold compress sprays again after measurements of joint swelling at 6, 12, and 24 hours.
A process of modeling is as follows: an area around an ankle joint of a right hind limb of each rat is marked with a marker pen, and a joint circumference is measured as a normal value using a plantar volume meter. 0.2 mL of 5% sodium urate suspension are injected (the joint of each rat is extended and a needle is inserted at 45 degrees) into a joint cavity on a dorsal side of the right ankle joint of each rat of each group. Here, the modeling of each group is completed.
Results of joint swelling are as follows: a volume of the right ankle joint of each rat at 6, 12, 24, and 48 hours after inflammation is measured.

On to `COc1ccc2c(c1)c(CC(=O)O)c(C)n2C(=O)c1ccc(Cl)cc1` [Indomethacin, indomethacin], for which, where the note is “right ankle joint volume 6 h after inflammation”, the “Volume of after modeling, 6 h” value is given as 2.42 ± 0.15 mL. Besides, under “right ankle joint volume 12 h after inflammation”, the “Volume of after modeling, 12 h” value is listed as 2.29 ± 0.30 mL. In addition, the “Volume of after modeling, 24 h” value (right ankle joint volume 24 h after inflammation) is 2.18 ± 0.09 mL. For the same compound, where the note is “right ankle joint volume 48 h after inflammation”, the “Volume of after modeling, 48 h” value was determined as 2.16 ± 0.14 mL. For the setting “right ankle joint volume, baseline before sodium urate injection”, this compound returned a Volume before modeling of 2.12 ± 0.21 mL.

The values are drawn from US20250205184A1, “COLD COMPRESS SPRAY FOR RELIEVING GOUT AND PREPARATION METHOD THEREOF” (priority 2023, published 2025).
